Earlier results, collected in paper PMC11444200, “In Vitro Evaluation of Antipseudomonal Activity and Safety Profile of Peptidomimetic Furin Inhibitors” (Biomedicines, 2024).
Like-named read-outs stand apart in the source and are kept apart here.

What was measured:
[1] = system: CYP3A4; conditions: cited from earlier work
[2] = system: mice; conditions: mice, cited from earlier work
[3] = parameters: method as in PMID 29059503; conditions: cited from earlier work
[4] = biological target: furin; conditions: read-out: Ki (furin); cited from earlier work
[5] = system: Mas-related G protein–coupled receptor X2 (MRGPRX2); parameters: method as in PMID 38385828; conditions: compared to MI-1851 and MI-2415; cited from earlier work

In the case of `N=C(N)c1cccc(C[C@H](NS(=O)(=O)c2cccc(-c3ccc(Cl)cc3Cl)c2)C(=O)N2CCC(CCN)CC2)c1.O=C(O)C(F)(F)F.O=C(O)C(F)(F)F` [MI-432], the CYP3A4 inhibition ([1]; compared with MI-1851 and MI-2415) is given as “inhibit CYP3A4 already at considerably lower concentrations”.

In the case of `CC(C)(C)[C@H](NC(=O)[C@H](CCCN=C(N)N)NC(=O)Cc1ccc(CN=C(N)N)cc1)C(=O)N[C@@H](CCCN=C(N)N)C(=O)NCc1ccc(C(=N)N)cc1` [MI-1148, 4-guanidinomethyl-phenylacetyl-Arg-Tle-Arg-4-Amba, reference compound], the mortality ([2]; 5 mg/kg i.p.) is given as “all four mice died”, the maximum tolerated dose ([2]; i.p.) is given as 2.5 mg/kg and the “stability in human plasma” value [3] is given as “high stability”. The Ki [4] was 5.5 pM and the “activation of MRGPRX2” value [5] was “much stronger activation”.

For `COc1ccc(-c2cccc(S(=O)(=O)N[C@@H](Cc3cccc(C(=N)N)c3)C(=O)N3CCN(C(=O)NC4CCCCC4)CC3)c2)c(OC)c1` [MI-1900], the CYP3A4 inhibition [1] is given as “inhibit CYP3A4 already at considerably lower concentrations”.
